Results on one compound are retold here after patent US4424225A, “Thienobenzodiazepinones, pharmaceutical compositions thereof and method of use thereof” (Dr. Karl Thomae GmbH, priority 1982, dated 1984).

Series [1] addresses muscarinic receptors (cerebral cortex). The series can be described thus: Binding to muscarinic receptors, displacement of 3H-N-methylscopolamine, cerebral cortex. Also noted: species or system rat (male Sprague-Dawley). The conditions noted are these: 0.3 n molar 3H-NMS, 30° C., 45 minutes, pH 7.4, read-out: Receptor Binding Tests IC50, Cortex. As for the experimental part: (§1) 3. STUDIES OF BINDING TO MUSCARINIC RECEPTORS: DETERMINATION OF THE IC50 VALUE
(§2) The organ donors were male Sprague-Dawley rats with a body weight of from about 180 to 220 gm each. After the heart, stomach, and cerebral cortex had been removed, the remainder of the operation was carried out in ice-cold Hepes-HCl buffer (pH 7.4; 100 m molar NaCl, 10 m molar MgCl2). The smooth muscle of the fundus of the stomach was separated from the mucous membrane of the stomach and subjected to preliminary homogenization. The whole heart was cut up with scissors. All the organs were then homogenized in a Potter apparatus.
(§3) For the binding test, the homogenized organs were diluted as follows:
(§4) The homogenized organ preparations were incubated at a specific concentration of the radioligand and with a series of concentrations of the non-radioactive test substances in an Eppendorf centrifuge tube at 30° C. The duration of incubation was 45 minutes. The substance 0.3 n molar ^3 H-N-methylscopolamine (^3 H-NMS) was used as the radioligand. After incubation had been brought to an end by centrifuging at 14000 g, the radioactivity in the pellet was determined. […] The proportion of non-specific binding was defined as the radioactivity which was bound in the presence of 1μ molar quinuclidinylbenzylate. […] The IC50 values of the non-labelled test substances were determined graphically. […]
On the technique in general: In a radioligand displacement assay an active substance lowers the binding of a labelled ligand.

Series [2] addresses T1, muscarinic receptors (smooth muscle of the fundus of the stomach) (Rattus norvegicus, UniProt P10980).
T1 construct: The smooth muscle of the fundus of the stomach was separated from the mucous membrane of the stomach; from tissue; host or cells: homogenized smooth muscle of the stomach fundus of male Sprague-Dawley rats
T1 sequence (P10980 1-466): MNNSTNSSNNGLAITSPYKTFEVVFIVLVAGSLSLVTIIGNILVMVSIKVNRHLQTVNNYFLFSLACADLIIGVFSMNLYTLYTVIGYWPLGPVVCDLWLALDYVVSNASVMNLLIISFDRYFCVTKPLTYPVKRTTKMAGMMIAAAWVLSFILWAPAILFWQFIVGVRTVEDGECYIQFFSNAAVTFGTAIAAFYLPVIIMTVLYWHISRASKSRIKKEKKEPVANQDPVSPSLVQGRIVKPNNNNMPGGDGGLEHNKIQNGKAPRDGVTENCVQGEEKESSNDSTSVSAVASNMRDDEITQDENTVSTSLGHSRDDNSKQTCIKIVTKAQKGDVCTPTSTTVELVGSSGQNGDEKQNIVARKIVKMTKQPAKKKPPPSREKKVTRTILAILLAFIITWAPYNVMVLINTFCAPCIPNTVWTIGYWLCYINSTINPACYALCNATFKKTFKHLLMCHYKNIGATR
The series can be described thus: Binding to muscarinic receptors, displacement of 3H-N-methylscopolamine, smooth muscle of the fundus of the stomach. Also on record: species or system rat (male Sprague-Dawley). The following applies: 0.3 n molar 3H-NMS, 30° C., 45 minutes, pH 7.4, read-out: Receptor Binding Tests IC50, Smooth Muscle Fundus of Stomach. How it is done:
as §1, §2, §3
Smooth muscle of the fundus of the stomach: 1:100
as §4, with “The substance 0.3 n molar ^3 H-N-methylscopolamine (^3 H-NMS) was used as the radioligand.” left out

The subject of series [3] is oxotremorine-induced lesions in the mucous membrane of the stomach (muscarinic receptors). The series can be described thus: Oxotremorine test: protection against oxotremorine-induced lesions of the gastric mucous membrane. Type of series: in vivo, rat (female albino, Crl: COBS-CD (SD) BR). The following applies: Rattus norvegicus, iv, 15 minutes before oxotremorine 0.62 mg/kg i.v., neostigmine 1 mg/kg oral. As for the experimental part: (§5) Oxotremorine, a specific agonist for muscarinic receptors, produces lesions in the mucous membrane of the stomach in rats and increases their secretion of saliva. This test method was chosen so that any selective activity of an anti-muscarinic substance on the stomach could be identified.
Ten female albino rats (of the Crl: COBS-CD (SD) BR strain) with a body weight of from 120 to 150 gm apiece were used in each treatment group and were kept without food for 24 hours before the start of the test but given free access to drinking water. […]
(§6) Each antimuscarinic substance was administered intravenously in uniformly graduated doses 15 minutes before the oxotremorine was administered. Control groups were given corresponding quantities of the solvent and suspension agent instead of the test substance. […]
(§7) The ED50 values were determined using the method described by LITCHFIELD and WILCOXON (J. Pharmacol. Exp. Ther. 96, 99, 1949).
The effects on lesions of the mucous membrane of the stomach were evaluated as follows:
The lesions of the gastric mucous membrane were produced by intravenous injection of 0.62 mg/kg of oxotremorine 30 minutes after oral administration of 1 mg/kg of neostigmine (a cholinesterase inhibitor). […] The protective effect of the test substances was expressed as the percentage inhibition (percentage of animals without lesions). […]

A short description of series [4]: Oxotremorine test: inhibition of oxotremorine-induced secretion of saliva. Also noted: species or system rat (female albino, Crl: COBS-CD (SD) BR). The following applies: rat, in vivo, iv, 15 minutes before oxotremorine 0.083 mg/kg i.v.; read-out: Oxotremorine Test, Inhibition of Salivation ED50. As for the experimental part: as §5
Ten female albino rats (of the Crl: COBS-CD (SD) BR strain) with a body weight of from 120 to 150 gm apiece were used in each treatment group and were kept without food for 24 hours before the start of the test but given free access to drinking water.
To determine, in preliminary tests, the muscarinic effect of oxotremorine on each of the symptoms studied, a dosage/activity curve was drawn up with at least three dosages for each symptom.
When the antimuscarinic substances were tested, the dosage of oxotremorine which triggered the symptom in question in 90 to 100% of the animals in the preliminary tests was used.
Secretion of saliva: 0.083 mg/kg i.v.
as §6, §7

The nature of a further series: Testing for mydriasis. The following applies: rat, in vivo, iv; pupil observed for 10 minutes. As for the experimental part:
The effect of the test substances on the pupil size in rats was investigated as follows:
The substances were administered intravenously to groups of 10 animals in at least three uniformly graduated doses. The pupil size was then observed for 10 minutes to see if there were any changes (mydriasis or miosis). […] The percentage of test animals in which mydriasis occurred was determined. The ED50 values were again determined using the method of LITCHFIELD and WILCOXON (see above).

By IC50 is commonly meant the concentration at which inhibition is half-maximal. For orientation: ED50 means the midpoint of the dose-response relation. Regarding `CN1CCC(CC(=O)N2c3ccccc3NC(=O)c3cscc32)CC1` [A, 4,9-Dihydro-4-[(1-methyl-4-piperidinyl)acetyl]-10H-thieno[3,4-b][1,5]benzodiazepin-10-one], the IC50 in series [1] is 20 nM; in series [2], 75 nM. Moreover, in series [3] (read-out: Oxotremorine Test, Anti-ulcerative Effect ED50), the ED50 amounted to 0.0078 mg/kg. Also, the ED70 in series [3] (read-out: Oxotremorine Test, Anti-ulcerative Effect ED70) is 0.014 mg/kg. Further, in series [4], the ED50 at 0.25 h is 0.0215 mg/kg. The compound further came in with an ED50 at 10 min in the series “Testing for mydriasis” of 0.03 mg/kg.
